Reference: ChEMBL document CHEMBL1134919, “1,3,4-Trisubstituted pyrrolidine CCR5 receptor antagonists. Part 3: polar functionality and its effect on anti-HIV-1 activity” (Bioorg Med Chem Lett, 2002)

Tests used:
[1] = target: T1, C-C chemokine receptor type 5 (Homo sapiens, UniProt P51681); assay: biochemical; type: cell-based, CHO
Target sequence in this assay (P51681 whole entry): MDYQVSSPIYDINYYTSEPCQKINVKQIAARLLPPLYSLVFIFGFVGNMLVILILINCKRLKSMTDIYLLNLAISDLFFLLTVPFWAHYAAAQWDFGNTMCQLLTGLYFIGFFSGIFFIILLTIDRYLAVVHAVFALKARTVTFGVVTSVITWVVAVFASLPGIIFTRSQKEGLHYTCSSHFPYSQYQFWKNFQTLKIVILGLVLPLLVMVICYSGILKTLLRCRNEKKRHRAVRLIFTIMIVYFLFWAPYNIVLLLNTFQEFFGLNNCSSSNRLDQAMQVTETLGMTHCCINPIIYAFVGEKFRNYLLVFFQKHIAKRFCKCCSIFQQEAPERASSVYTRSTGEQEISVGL

[2] = Inhibition (CIC90) of a single HIV-1 (BAL) infection cycle in HeLa Magi cells expressing both CXCR4 and CCR5 receptors over a 48 h period; type: functional; settings: Homo sapiens
[3] = target: T1, C-C chemokine receptor type 5; assay: Displacement of [125I]-labeled MIP-1alpha from the C-C chemokine receptor type 5 expressed on CHO cell membranes.; type: cell-based
Target sequence in this assay (P51681 whole entry): as above

[4] = target: T1, C-C chemokine receptor type 5; assay: Concentration that inhibits the entry of HIV-1 in to peripheral blood mononuclear cells (PBMCs) via the antagonism of CCR5 receptor.; type: functional
Target sequence in this assay (P51681 whole entry, looked up): as the sequence (P51681 whole entry) above

[5] = Half-life period was determined for the compound in rat; type: ADME, organism-based; settings: in vivo
[6] = Plasma clearance rate was determined for the compound in rat; type: ADME, organism-based; settings: read-out: Clp

## O=C(O)c1ccccc1CCCC1(O)CCN(C[C@H]2CN(CC3CCCCC3)C[C@@H]2c2ccccc2)CC1
[1]
  IC50: 100 nM
[2]
  IC90: > 1000 nM

## O=C(O)Cc1cccc(CCCC2(O)CCN(C[C@H]3CN(CC4CCCCC4)C[C@@H]3c3ccccc3)CC2)c1
[1]
  IC50: 6 nM
[2]
  IC90: 300 nM

## OC1(CCCc2ccccn2)CCN(C[C@H]2CN(CC3CCCCC3)C[C@@H]2c2ccccc2)CC1
[3]
  IC50: 7 nM

## Cn1nnnc1-c1ccc(CCCC2(O)CCN(C[C@H]3CN(CC4CCCCC4)C[C@@H]3c3ccccc3)CC2)cc1
[1]
  IC50: 0.2 nM
[2]
  IC90: 100 nM

## O=C(O)Cc1ccc(CCCC2(O)CCN(C[C@H]3CN(CC4CCCCC4)C[C@@H]3c3ccccc3)CC2)cc1
[1]
  IC50: 5 nM
[2]
  IC90: 100 nM

## OC1(CCCc2cccnc2)CCN(C[C@H]2CN(CC3CCCCC3)C[C@@H]2c2ccccc2)CC1
[3]
  IC50: 6 nM

## C=CCN(C(=O)OCc1ccc([N+](=O)[O-])cc1)C1CCN(C[C@H]2CN(C(=O)c3ccccc3Cl)C[C@@H]2c2ccccc2)CC1
[4]
  IC95: 31 nM
[2]
  IC90: 1 nM

## OC1(CCCc2ccccc2)CCN(C[C@H]2CN(CC3CCCCC3)C[C@@H]2c2ccccc2)CC1
[4]
  IC95: 580 nM
[3]
  IC50: 0.3 nM
[2]
  IC90: 200 nM

## OC1(CCCc2ccc(-c3nnn[nH]3)cc2)CCN(C[C@H]2CN(CC3CCCCC3)C[C@@H]2c2ccccc2)CC1
[5]
  half-life: 20 min
[6]
  clearance: 61 mL/min/kg
[1]
  IC50: 0.2 nM
[2]
  IC90: 4 nM

## O=C(O)c1cccc(CCCC2(O)CCN(C[C@H]3CN(CC4CCCCC4)C[C@@H]3c3ccccc3)CC2)c1
[1]
  IC50: 3 nM
[2]
  IC90: > 1000 nM

## O=C(O)CCc1ccc(CCCC2(O)CCN(C[C@H]3CN(CC4CCCCC4)C[C@@H]3c3ccccc3)CC2)cc1
[1]
  IC50: 2 nM
[2]
  IC90: 40 nM

## C[n+]1n[nH]c(-c2ccc(CCCC3(O)CCN(C[C@H]4CN(CC5CCCCC5)C[C@@H]4c4ccccc4)CC3)cc2)n1
[1]
  IC50: 0.4 nM
[2]
  IC90: > 300 nM

## OC1(CCCc2ccncc2)CCN(C[C@H]2CN(CC3CCCCC3)C[C@@H]2c2ccccc2)CC1
[3]
  IC50: 12 nM

## O=C(O)c1ccc(CCCC2(O)CCN(C[C@H]3CN(CC4CCCCC4)C[C@@H]3c3ccccc3)CC2)cc1
[1]
  IC50: 10 nM
[2]
  IC90: 1000 nM

## OC1(CCCc2ccc(Cc3nnn[nH]3)cc2)CCN(C[C@H]2CN(CC3CCCCC3)C[C@@H]2c2ccccc2)CC1
[1]
  IC50: 1 nM
[2]
  IC90: 100 nM
